Reference: patent US8921376B2, “Pyrrolopyridines useful as inhibitors of protein kinase” (Vertex Pharmaceuticals Incorporated, priority 2005, dated 2014)
Blank lines part the entries; values can stand above or below the compound they belong to.

Experiments:
Assay type in all cases: biochemical
JAK2 = JAK2 (Homo sapiens, UniProt O60674); assay: JAK2 inhibition assay (as Example 3 with JAK-2 enzyme); conditions: enzyme inhibition, Table 5
Experimental: (§1) Compounds were screened for their ability to inhibit JAK using the assay shown below. Reactions were carried out in a kinase buffer containing 100 mM HEPES (pH 7.4), 1 mM DTT, 10 mM MgCl2, 25 mM NaCl, and 0.01% BSA.
(§2) Substrate concentrations in the assay were 5 μM ATP (200 μCi/μmole ATP) and 1 μM poly(Glu)4Tyr. Reactions were carried out at 25° C. and 1 nM JAK3.
(§3) To each well of a 96 well polycarbonate plate was added 1.5 μl of a candidate JAK3 inhibitor along with 50/1 of kinase buffer containing 2 μM poly(Glu)4Tyr and 10 μM ATP. This was then mixed and 50 μl of kinase buffer containing 2 nM JAK3 enzyme was added to start the reaction. After 20 minutes at room temperature (25 C), the reaction was stopped with 50 μl of 20% trichloroacetic acid (TCA) that also contained 0.4 mM ATP. The entire contents of each well were then transferred to a 96 well glass fiber filter plate using a TomTek Cell Harvester. After washing, 60 μl of scintillation fluid was added and ^33P incorporation detected on a Perkin Elmer TopCount.
The assays were as described above in Example 3 except that JAK-2 enzyme was used, the final poly(Glu)4Tyr concentration was 15 μM, and final ATP concentration was 12 μM.

ROCK I = ROCK I (Homo sapiens, UniProt Q13464); assay: ROCK-I inhibition assay (radioactive enzyme assay, MBP substrate); conditions: enzyme inhibition, Ki(app), Table 5
Sequence of ROCK I (Q13464 whole entry): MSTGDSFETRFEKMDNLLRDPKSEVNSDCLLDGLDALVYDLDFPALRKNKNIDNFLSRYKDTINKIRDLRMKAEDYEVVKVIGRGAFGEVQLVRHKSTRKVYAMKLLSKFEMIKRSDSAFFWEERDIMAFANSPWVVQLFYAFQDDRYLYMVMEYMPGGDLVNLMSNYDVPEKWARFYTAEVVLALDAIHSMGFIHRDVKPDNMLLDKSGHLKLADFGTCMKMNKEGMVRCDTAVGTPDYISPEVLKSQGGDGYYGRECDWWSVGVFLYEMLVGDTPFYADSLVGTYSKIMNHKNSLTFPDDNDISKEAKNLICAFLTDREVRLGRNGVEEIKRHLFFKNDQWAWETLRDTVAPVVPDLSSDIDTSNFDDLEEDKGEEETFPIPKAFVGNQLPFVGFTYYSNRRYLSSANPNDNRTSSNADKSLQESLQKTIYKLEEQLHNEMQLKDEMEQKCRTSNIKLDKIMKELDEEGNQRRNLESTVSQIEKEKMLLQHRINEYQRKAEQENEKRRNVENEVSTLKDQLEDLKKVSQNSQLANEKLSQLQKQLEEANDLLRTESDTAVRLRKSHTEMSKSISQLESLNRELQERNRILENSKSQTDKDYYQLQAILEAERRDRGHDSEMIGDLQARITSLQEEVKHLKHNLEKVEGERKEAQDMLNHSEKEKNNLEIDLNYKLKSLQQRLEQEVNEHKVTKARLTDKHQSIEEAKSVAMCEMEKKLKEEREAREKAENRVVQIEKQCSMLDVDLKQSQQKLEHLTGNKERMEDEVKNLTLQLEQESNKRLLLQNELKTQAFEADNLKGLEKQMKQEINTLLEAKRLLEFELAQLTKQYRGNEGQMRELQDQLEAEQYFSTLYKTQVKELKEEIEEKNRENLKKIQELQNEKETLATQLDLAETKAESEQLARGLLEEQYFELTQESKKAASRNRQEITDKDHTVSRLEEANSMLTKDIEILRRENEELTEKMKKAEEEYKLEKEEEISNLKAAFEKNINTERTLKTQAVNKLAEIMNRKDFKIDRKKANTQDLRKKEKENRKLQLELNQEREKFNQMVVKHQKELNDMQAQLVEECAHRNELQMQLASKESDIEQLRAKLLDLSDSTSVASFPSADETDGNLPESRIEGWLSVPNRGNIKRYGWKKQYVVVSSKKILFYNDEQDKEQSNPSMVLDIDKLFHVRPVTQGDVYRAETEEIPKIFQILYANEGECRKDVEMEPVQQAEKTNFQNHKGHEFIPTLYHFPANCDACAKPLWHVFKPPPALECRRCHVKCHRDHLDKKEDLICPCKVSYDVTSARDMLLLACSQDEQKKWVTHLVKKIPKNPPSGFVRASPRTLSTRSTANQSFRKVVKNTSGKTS
Experimental: Compounds were screened for their ability to inhibit ROCK using a standard radioactive enzyme assay. Assays were carried out in a solution containing 100 mM HEPES (pH 7.5), 10 mM MgCl2, 25 mM NaCl, 2 mM DTT, and 1.5% DMSO. Final substrate concentrations in the assay were 13 μM [γ-^33P] ATP (25 mCi ^33P ATP/mmol ATP, Perkin Elmer, Cambridge, Mass./Sigma Chemicals, St Louis, Mo.) and 27 μM Myelin Basic Protein (MBP). Final enzyme concentration in the assay was 5 nM ROCK. Assays were carried out at room temperature. 1.5 μl of DMSO stock containing serial dilutions of the compound of the present invention (concentrations ranging from 10 μM to 2.6 nM) was placed in a 96 well plate. 50 μl of Solution 1 (100 mM HEPES (pH 7.5), 10 mM MgCl2, […]) was added to the plate. The reaction was initiated by addition of 50 μl of Solution 2 (100 mM HEPES (pH 7.5), 10 mM MgCl2, 4 mM DTT, […] and 10 nM ROCK). After 2 hours the reaction was quenched with 50 μL of 30% trichloroacetic acid (TCA, Fisher) containing 9 mM ATP. Transfer of 140 μL of the quenched reaction to a glass fiber filter plate (Corning, Cat. No. 3511) was followed by washing 3 times with 5% TCA. 50 μl of Optima Gold scintillation fluid (Perkin Elmer) was added and the plates were counted on a Top Count (Perkin Elmer). After removing mean background values for all of the data points the data was fit using Prism software to obtain a Ki(app).

JAK3 = target: T1, JAK3 (Homo sapiens, UniProt P52333); assay: JAK3 inhibition assay (33P incorporation into poly(Glu)4Tyr); conditions: enzyme inhibition, Table 5
T1 sequence (P52333 1-1124): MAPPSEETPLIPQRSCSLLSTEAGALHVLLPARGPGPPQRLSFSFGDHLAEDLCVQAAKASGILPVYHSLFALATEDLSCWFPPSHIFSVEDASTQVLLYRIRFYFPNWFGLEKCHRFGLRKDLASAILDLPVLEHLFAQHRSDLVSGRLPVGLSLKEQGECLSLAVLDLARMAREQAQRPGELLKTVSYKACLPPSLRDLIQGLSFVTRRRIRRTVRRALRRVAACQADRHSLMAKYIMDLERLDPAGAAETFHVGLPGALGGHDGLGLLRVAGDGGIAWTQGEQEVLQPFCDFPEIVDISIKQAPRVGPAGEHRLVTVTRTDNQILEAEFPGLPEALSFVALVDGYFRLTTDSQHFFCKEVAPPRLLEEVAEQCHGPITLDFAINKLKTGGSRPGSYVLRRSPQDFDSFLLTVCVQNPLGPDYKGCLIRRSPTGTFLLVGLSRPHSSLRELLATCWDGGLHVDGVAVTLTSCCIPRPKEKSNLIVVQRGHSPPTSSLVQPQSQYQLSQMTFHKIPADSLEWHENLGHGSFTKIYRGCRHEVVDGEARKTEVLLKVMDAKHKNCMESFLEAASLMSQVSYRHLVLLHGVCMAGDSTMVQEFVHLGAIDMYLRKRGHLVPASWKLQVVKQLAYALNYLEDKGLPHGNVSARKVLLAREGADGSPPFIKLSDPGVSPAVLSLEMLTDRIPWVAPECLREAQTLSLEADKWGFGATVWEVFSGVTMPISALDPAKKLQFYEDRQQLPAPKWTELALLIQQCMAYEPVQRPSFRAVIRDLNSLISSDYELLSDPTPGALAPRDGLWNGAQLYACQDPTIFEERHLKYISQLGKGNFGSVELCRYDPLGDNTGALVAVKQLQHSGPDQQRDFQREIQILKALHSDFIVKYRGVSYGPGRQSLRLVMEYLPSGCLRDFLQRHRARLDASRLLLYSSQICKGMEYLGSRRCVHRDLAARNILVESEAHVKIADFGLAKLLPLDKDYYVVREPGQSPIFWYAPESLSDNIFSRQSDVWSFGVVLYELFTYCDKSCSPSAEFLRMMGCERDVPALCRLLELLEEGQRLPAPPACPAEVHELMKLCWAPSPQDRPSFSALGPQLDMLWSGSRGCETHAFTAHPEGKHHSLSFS
Experimental: as §1, §2, §3

Sequence of JAK2 (O60674 whole entry): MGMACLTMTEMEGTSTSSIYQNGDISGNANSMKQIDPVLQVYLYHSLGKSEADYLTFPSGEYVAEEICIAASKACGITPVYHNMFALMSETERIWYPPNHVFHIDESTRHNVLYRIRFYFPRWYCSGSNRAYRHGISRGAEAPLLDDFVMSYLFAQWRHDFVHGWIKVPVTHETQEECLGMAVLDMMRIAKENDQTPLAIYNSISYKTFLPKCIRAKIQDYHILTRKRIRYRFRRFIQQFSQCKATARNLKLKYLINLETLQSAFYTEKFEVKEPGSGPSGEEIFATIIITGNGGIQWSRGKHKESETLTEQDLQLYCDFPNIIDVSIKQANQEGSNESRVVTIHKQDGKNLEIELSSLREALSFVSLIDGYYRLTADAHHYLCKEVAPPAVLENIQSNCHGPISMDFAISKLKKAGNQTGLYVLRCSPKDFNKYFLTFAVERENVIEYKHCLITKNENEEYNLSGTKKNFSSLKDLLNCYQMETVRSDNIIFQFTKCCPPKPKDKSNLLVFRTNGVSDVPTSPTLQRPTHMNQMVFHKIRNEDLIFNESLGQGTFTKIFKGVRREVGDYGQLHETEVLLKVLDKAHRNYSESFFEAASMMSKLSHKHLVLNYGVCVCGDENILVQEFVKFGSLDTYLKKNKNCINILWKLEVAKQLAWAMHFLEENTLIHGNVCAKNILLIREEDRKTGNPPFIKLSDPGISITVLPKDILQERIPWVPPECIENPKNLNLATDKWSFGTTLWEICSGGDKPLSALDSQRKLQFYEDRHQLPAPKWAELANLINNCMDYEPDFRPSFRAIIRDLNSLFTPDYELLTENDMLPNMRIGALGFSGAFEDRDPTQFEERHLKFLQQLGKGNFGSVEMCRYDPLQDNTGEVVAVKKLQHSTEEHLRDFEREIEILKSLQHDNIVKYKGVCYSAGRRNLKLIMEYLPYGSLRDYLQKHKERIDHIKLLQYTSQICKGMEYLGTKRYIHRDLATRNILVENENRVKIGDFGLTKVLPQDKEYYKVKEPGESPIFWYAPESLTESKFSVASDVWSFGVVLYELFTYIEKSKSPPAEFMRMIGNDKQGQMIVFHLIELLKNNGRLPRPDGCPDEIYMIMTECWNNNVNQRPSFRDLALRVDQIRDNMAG

SMILES: c1cc(-c2ccnc3[nH]ccc23)nc(N2CCc3ccccc3C2)c1 [compound 38, 2-(6-(1H-Pyrrolo[2,3-b]pyridin-4-yl)pyridin-2-yl)-1,2,3,4-tetrahydroisoquinoline]
Ki (JAK2): 0.5 to 5 µM | Ki (ROCK I): 0.5 to 5 µM | Ki (JAK3): 0.5 to 5 µM

SMILES: Clc1cc(-c2ccnc3[nH]ccc23)ccn1 [compound 39, 4-(2-Chloro-pyridin-4-yl)-1H-pyrrolo[2,3-b]pyridine]
Ki (JAK2): 0.5 to 5 µM | Ki (ROCK I): 0.5 to 5 µM | Ki (JAK3): 0.5 to 5 µM

SMILES: c1ccc(COc2cccc(-c3ccnc4[nH]ccc34)c2)cc1 [compound 42, 4-(3-Benzyloxy-phenyl)-1H-pyrrolo[2,3-b]pyridine]
Ki (JAK2): 0.5 to 5 µM | Ki (ROCK I): < 0.5 µM | Ki (JAK3): < 0.5 µM

SMILES: CC(=O)Nc1ccc(-c2ccnc3[nH]ccc23)cc1 [compound 43, N-[4-(1H-Pyrrolo[2,3-b]pyridin-4-yl)-phenyl]-acetamide]
Ki (JAK2): < 0.5 µM | Ki (ROCK I): < 0.5 µM | Ki (JAK3): < 0.5 µM

SMILES: CC(C)(C)OC(=O)N1CC=C(c2ccnc3[nH]ccc23)CC1 [compound 44]
Ki (JAK2): < 0.5 µM | Ki (ROCK I): < 0.5 µM | Ki (JAK3): < 0.5 µM

SMILES: C1=C(c2ccnc3[nH]ccc23)CCNC1 [compound 45]
Ki (JAK2): 0.5 to 5 µM | Ki (ROCK I): < 0.5 µM | Ki (JAK3): 0.5 to 5 µM

SMILES: CCOC(=O)c1cccc(-c2ccnc3[nH]ccc23)c1 [compound 46, 3-(1H-Pyrrolo[2,3-b]pyridin-4-yl)-benzoic acid ethyl ester]
Ki (JAK2): 0.5 to 5 µM | Ki (ROCK I): 0.5 to 5 µM | Ki (JAK3): 0.5 to 5 µM

SMILES: Fc1cccc(-c2c(Cl)cnc3[nH]ccc23)n1 [compound 48, 5-chloro-4-(6-fluoropyridin-2-yl)-1H-pyrrolo[2,3-b]pyridine]
Ki (JAK2): < 0.5 µM | Ki (ROCK I): 0.5 to 5 µM | Ki (JAK3): < 0.5 µM

SMILES: Fc1cccc(-c2ccnc3[nH]ccc23)n1 [compound 50, 4-(6-fluoropyridin-2-yl)-1H-pyrrolo[2,3-b]pyridine]
Ki (JAK2): 0.5 to 5 µM | Ki (ROCK I): 0.5 to 5 µM | Ki (JAK3): 0.5 to 5 µM

SMILES: OC1CCN(c2cccc(-c3ccnc4[nH]ccc34)n2)C1 (stereo not drawn) [compound 51]
Ki (JAK2): 0.5 to 5 µM | Ki (ROCK I): 0.5 to 5 µM | Ki (JAK3): 0.5 to 5 µM

SMILES: CCN(CC)c1cccc(-c2ccnc3[nH]ccc23)n1 [compound 52, N,N-Diethyl-6-(1H-pyrrolo[2,3-b]pyridin-4-yl)pyridin-2-amine]
Ki (JAK2): < 0.5 µM | Ki (ROCK I): < 0.5 µM | Ki (JAK3): < 0.5 µM

SMILES: CN(CCC(O)c1ccccc1)c1cccc(-c2ccnc3[nH]ccc23)n1 (stereo not drawn) [compound 53]
Ki (JAK2): 0.5 to 5 µM | Ki (ROCK I): < 0.5 µM | Ki (JAK3): 0.5 to 5 µM

SMILES: c1cc(-c2ccnc3[nH]ccc23)nc(N2CCC[C@H]2CN2CCCC2)c1 [compound 54]
Ki (JAK2): > 5 µM | Ki (ROCK I): 0.5 to 5 µM | Ki (JAK3): > 5 µM

SMILES: CN(Cc1cccnc1)c1cccc(-c2ccnc3[nH]ccc23)n1 [compound 56, N-Methyl-N-((pyridin-3-yl)methyl)-6-(1H-pyrrolo[2,3-b]pyridin-4-yl)pyridin-2-amine]
Ki (JAK2): < 0.5 µM | Ki (ROCK I): 0.5 to 5 µM | Ki (JAK3): 0.5 to 5 µM

SMILES: CC(C)(CO)CNc1cccc(-c2ccnc3[nH]ccc23)n1 [compound 57, 3-(6-(1H-Pyrrolo[2,3-b]pyridin-4-yl)pyridin-2-ylamino)-2,2-dimethylpropan-1-ol]
Ki (JAK2): 0.5 to 5 µM | Ki (ROCK I): 0.5 to 5 µM | Ki (JAK3): > 5 µM

SMILES: c1cc(NCC2COc3ccccc3O2)nc(-c2ccnc3[nH]ccc23)c1 (stereo not drawn) [compound 58, N-((2,3-Dihydrobenzo[b][1,4]dioxin-2-yl)methyl)-6-(1H-pyrrolo[2,3-b]pyridin-4-yl)pyridin-2-amine]
Ki (JAK2): 0.5 to 5 µM | Ki (ROCK I): 0.5 to 5 µM | Ki (JAK3): 0.5 to 5 µM

SMILES: CC(C)N(C)c1cccc(-c2ccnc3[nH]ccc23)n1 [compound 61, N-Isopropyl-N-methyl-6-(1H-pyrrolo[2,3-b]pyridin-4-yl)pyridin-2-amine]
Ki (JAK2): < 0.5 µM | Ki (ROCK I): 0.5 to 5 µM | Ki (JAK3): 0.5 to 5 µM

SMILES: N#CCc1cccc(-c2ccnc3[nH]ccc23)c1 [compound 63, [3-(1H-Pyrrolo[2,3-b]pyridin-4-yl)-phenyl]-acetonitrile]
Ki (JAK2): < 0.5 µM | Ki (ROCK I): < 0.5 µM | Ki (JAK3): < 0.5 µM

SMILES: CC(=O)N1CC=C(c2ccnc3[nH]ccc23)CC1 [compound 64]
Ki (JAK2): 0.5 to 5 µM | Ki (ROCK I): 0.5 to 5 µM | Ki (JAK3): 0.5 to 5 µM

Continued, values first:

Ki (JAK2): > 5 µM | Ki (ROCK I): 0.5 to 5 µM | Ki (JAK3): > 5 µM
SMILES: CN1CCCC1CCNc1cccc(-c2ccnc3[nH]ccc23)n1 (stereo not drawn) [compound 37, N-(2-(1-Methylpyrrolidin-2-yl)ethyl)-6-(1H-pyrrolo[2,3-b]pyridin-4-yl)pyridin-2-amine]

Ki (JAK2): 0.5 to 5 µM | Ki (ROCK I): 0.5 to 5 µM | Ki (JAK3): 0.5 to 5 µM
SMILES: COc1cc(-c2ccnc3[nH]ccc23)cc(OC)c1OC [compound 40, 4-(3,4,5-Trimethoxy-phenyl)-1H-pyrrolo[2,3-b]pyridine]

Ki (JAK2): < 0.5 µM | Ki (ROCK I): < 0.5 µM | Ki (JAK3): 0.5 to 5 µM
SMILES: Clc1ccc(-c2ccnc3[nH]ccc23)cc1Cl [compound 41, 4-(3,4-Dichloro-phenyl)-1H-pyrrolo[2,3-b]pyridine]

Ki (JAK2): 0.5 to 5 µM | Ki (ROCK I): 0.5 to 5 µM | Ki (JAK3): 0.5 to 5 µM
SMILES: O=C(O)c1cccc(-c2ccnc3[nH]ccc23)c1 [compound 47, 3-(1H-Pyrrolo[2,3-b]pyridin-4-yl)-benzoic acid]

Ki (JAK2): 0.5 to 5 µM | Ki (ROCK I): < 0.5 µM | Ki (JAK3): < 0.5 µM
SMILES: OCc1cccc(-c2ccnc3[nH]ccc23)c1 [compound 49, [3-(1H-Pyrrolo[2,3-b]pyridin-4-yl)-phenyl]-methanol]

Ki (JAK2): < 0.5 µM | Ki (ROCK I): < 0.5 µM | Ki (JAK3): 0.5 to 5 µM
SMILES: CN(CC(O)c1ccccc1)c1cccc(-c2ccnc3[nH]ccc23)n1 (stereo not drawn) [compound 55, 2-(N-(6-(1H-pyrrolo[2,3-b]pyridin-4-yl)pyridin-2-yl)-N-methylamino)1-phenylethanol]

Ki (JAK2): > 5 µM | Ki (ROCK I): 0.5 to 5 µM | Ki (JAK3): > 5 µM
SMILES: CC(C)C[C@@H](CO)Nc1cccc(-c2ccnc3[nH]ccc23)n1 [compound 59, (S)-2-(6-(1H-Pyrrolo[2,3-b]pyridin-4-yl)pyridin-2-ylamino)-4-methylpentan-1-ol]

Ki (JAK2): 0.5 to 5 µM | Ki (ROCK I): 0.5 to 5 µM | Ki (JAK3): 0.5 to 5 µM
SMILES: c1cc(NCc2ccc3c(c2)OCO3)nc(-c2ccnc3[nH]ccc23)c1 [compound 60, N-((Benzo[d][1,3]dioxol-6-yl)methyl)-6-(1H-pyrrolo[2,3-b]pyridin-4-yl)pyridin-2-amine]

Ki (JAK2): < 0.5 µM | Ki (ROCK I): < 0.5 µM | Ki (JAK3): < 0.5 µM
SMILES: COCc1cccc(-c2ccnc3[nH]ccc23)c1 [compound 62, 4-(3-Methoxymethyl-phenyl)-1H-pyrrolo[2,3-b]pyridine]
